Patent US12685312B2, “Sulfonamide apyrase inhibitors” (Texas Crop Science, Inc., priority 2022, dated 2026)

The compounds below were run on apyrase (assay: Screen for apyrase inhibitors (Method 1, in vitro phosphate-release absorbance assay)). Details: inhibitor conc at 1 mM stock, 1 hr room temperature, absorbance 630 nm; rounded average of two assay results.
Type: biochemical
In short: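 Phosphate-release colorimetric assay (Windsor method) in 60 mM Hepes, 3 mM MgCl2, 3 mM CaCl2, 3 mM ATP, pH 6.5, with compound or DMSO control added. Released phosphate developed with ammonium molybdate and ascorbic acid/TCA, then stopped with citrate/acetic acid.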

Compared with `COc1ccc(S(=O)(=O)N2CCc3ccccc32)cc1C(=O)Nc1ccccc1F` [I-538, N-(2-fluorophenyl)-5-(indolin-1-ylsulfonyl)-2-methoxybenzamide], `COc1ccc(Cl)cc1NC(=O)c1cccc(S(=O)(=O)N2CCc3ccccc32)c1` [I-548, N-(5-chloro-2-methoxyphenyl)-3-(indolin-1-ylsulfonyl)benzamide] is lower in “% Inhibition of Apyrase” value: 54% for the first, 53% for the second.

Going from `O=C(Nc1ccc2c(c1)CCC2)c1cccc(S(=O)(=O)N2CCc3ccccc32)c1` [I-539, N-(2,3-dihydro-1H-inden-5-yl)-3-(indolin-1-ylsulfonyl)benzamide] to `CN(C)S(=O)(=O)c1cccc(NC(=O)c2cccc(S(=O)(=O)N3CCc4ccccc43)c2)c1` [I-550, N-(3-(N,N-dimethylsulfamoyl)phenyl)-3-(indolin-1-ylsulfonyl)benzamide], the “% Inhibition of Apyrase” value falls from 54% to 53%.

First: COc1ccc(N(C)S(=O)(=O)c2cccc(C(=O)N3CCc4ccccc43)c2)cc1 [I-540, 3-(indoline-1-carbonyl)-N-(4-methoxyphenyl)-N-methylbenzenesulfonamide]
Second: Cc1ccc(N(C)S(=O)(=O)c2cccc(C(=O)N3CCc4ccccc43)c2)cc1 [I-558, 3-(indoline-1-carbonyl)-N-methyl-N-(p-tolyl)benzenesulfonamide]
The “% Inhibition of Apyrase” value of the first is higher: 54% for the first, 52% for the second.

Going from `CCOc1ccc(NC(=O)c2cccc(S(=O)(=O)Nc3ccc(OCC)cc3)c2)cc1` [I-541, N-(4-ethoxyphenyl)-3-(N-(4-ethoxyphenyl)sulfamoyl)benzamide] to `COc1ccc(N(C)S(=O)(=O)c2cccc(C(=O)Nc3ccc(OC)c(Cl)c3)c2)cc1` [I-546, N-(3-chloro-4-methoxyphenyl)-3-(N-(4-methoxyphenyl)-N-methylsulfamoyl)benzamide], the “% Inhibition of Apyrase” value falls from 54% to 53%.

Compared with `O=C(c1cccc(S(=O)(=O)Nc2cccc(Cl)c2)c1)N1CCc2ccccc21` [I-542, N-(3-chlorophenyl)-3-(indoline-1-carbonyl)benzenesulfonamide], `O=C(c1cccc(S(=O)(=O)N2CCc3ccccc32)c1)N1CCc2ccccc21` [I-567, indolin-1-yl(3-(indolin-1-ylsulfonyl)phenyl)methanone] is lower in “% Inhibition of Apyrase” value: 54% for the first, 51% for the second.

`Cc1ccc(S(=O)(=O)Nc2ccc(F)cc2)cc1C(=O)N1CCc2ccccc21` [I-543, N-(4-fluorophenyl)-3-(indoline-1-carbonyl)-4-methylbenzenesulfonamide] and `Cc1ccc(S(=O)(=O)Nc2ccc(F)cc2)cc1C(=O)N1c2ccccc2CC1C` (stereo not drawn) [I-544, N-(4-fluorophenyl)-4-methyl-3-(2-methylindoline-1-carbonyl)benzenesulfonamide] are the same in “% Inhibition of Apyrase” value: 54% for the first, 54% for the second.

Going from `COc1ccc(C(=O)N2c3ccccc3CC2C)cc1S(=O)(=O)Nc1ccc(C)cc1` (stereo not drawn) [I-545, 2-methoxy-5-(2-methylindoline-1-carbonyl)-N-(p-tolyl)benzenesulfonamide] to `CCOc1ccc(N(C)S(=O)(=O)c2ccc(C)c(C(=O)N3c4ccccc4CC3C)c2)cc1` (stereo not drawn) [I-564, N-(4-ethoxyphenyl)-N,4-dimethyl-3-(2-methylindoline-1-carbonyl)benzenesulfonamide], the “% Inhibition of Apyrase” value falls from 53% to 51%.

Going from `Cc1ccc(NC(=O)c2cccc(S(=O)(=O)N3c4ccccc4CC3C)c2)c(C)c1` (stereo not drawn) [I-547, N-(2,4-dimethylphenyl)-3-((2-methylindolin-1-yl)sulfonyl)benzamide] to `CC1Cc2ccccc2N1S(=O)(=O)c1cccc(C(=O)Nc2cccc(S(=O)(=O)N(C)C)c2)c1` (stereo not drawn) [I-556, N-(3-(N,N-dimethylsulfamoyl)phenyl)-3-((2-methylindolin-1-yl)sulfonyl)benzamide], the “% Inhibition of Apyrase” value falls from 53% to 52%.

`O=C(Nc1cc(Cl)ccc1N1CCOCC1)c1cccc(S(=O)(=O)N2CCc3ccccc32)c1` [I-549, N-(5-chloro-2-morpholinophenyl)-3-(indolin-1-ylsulfonyl)benzamide] and `Cc1ccc(NC(=O)c2cccc(S(=O)(=O)N3CCc4ccccc43)c2)c(OCC2CCCO2)c1` (stereo not drawn) [I-552, 3-(indolin-1-ylsulfonyl)-N-(4-methyl-2-((tetrahydrofuran-2-yl)methoxy)phenyl)benzamide] are the same in “% Inhibition of Apyrase” value: 53% for the first, 53% for the second.

Compared with `O=C(c1cc(S(=O)(=O)Nc2cccc(Cl)c2)c(Cl)cc1Cl)N1CCCc2ccccc21` [I-551, 2,4-dichloro-N-(3-chlorophenyl)-5-(1,2,3,4-tetrahydroquinoline-1-carbonyl)benzenesulfonamide], `O=C(c1cc(S(=O)(=O)Nc2ccc(Cl)cc2)ccc1Cl)N1CCCc2ccccc21` [I-559, 4-chloro-N-(4-chlorophenyl)-3-(1,2,3,4-tetrahydroquinoline-1-carbonyl)benzenesulfonamide] is lower in “% Inhibition of Apyrase” value: 53% for the first, 52% for the second.

First: CC(C)n1ncc2cc(NC(=O)c3cccc(S(=O)(=O)Nc4ccc5c(c4)OCO5)c3)cnc21 [I-553, 3-(N-(benzo[d][1,3]dioxol-5-yl)sulfamoyl)-N-(1-isopropyl-1H-pyrazolo[3,4-b]pyridin-5-yl)benzamide]
Second: COc1ccc(N(C)S(=O)(=O)c2cccc(C(=O)Nc3ccc4c(c3)OCCO4)c2)cc1 [I-563, N-(2,3-dihydrobenzo[b][1,4]dioxin-6-yl)-3-(N-(4-methoxyphenyl)-N-methylsulfamoyl)benzamide]
The “% Inhibition of Apyrase” value of the first is higher: 52% for the first, 51% for the second.

Going from `O=C(Nc1ccc(S(=O)(=O)Nc2ncccn2)cc1)c1cccc(S(=O)(=O)N2CCc3ccccc32)c1` [I-554, 3-(indolin-1-ylsulfonyl)-N-(4-(N-(pyrimidin-2-yl)sulfamoyl)phenyl)benzamide] to `CCc1ccccc1NC(=O)c1cccc(S(=O)(=O)N2CCc3ccccc32)c1` [I-566, N-(2-ethylphenyl)-3-(indolin-1-ylsulfonyl)benzamide], the “% Inhibition of Apyrase” value falls from 52% to 51%.

`Cc1cccc(NC(=O)c2ccc(Cl)c(S(=O)(=O)N3CCc4ccccc43)c2)c1` [I-555, 4-chloro-3-(indolin-1-ylsulfonyl)-N-(m-tolyl)benzamide] and `N#Cc1ccc(NC(=O)c2ccc(Cl)c(S(=O)(=O)N3CCc4ccccc43)c2)cc1` [I-557, 4-chloro-N-(4-cyanophenyl)-3-(indolin-1-ylsulfonyl)benzamide] are the same in “% Inhibition of Apyrase” value: 52% for the first, 52% for the second.

Compared with `Cc1cccc(NS(=O)(=O)c2cc(C(=O)Nc3cccc(C#N)c3)c(Cl)cc2Cl)c1` [I-560, 2,4-dichloro-N-(3-cyanophenyl)-5-(N-(m-tolyl)sulfamoyl)benzamide], `O=C(Nc1ccc2c(c1)OCO2)c1ccc(Cl)c(S(=O)(=O)N2CCc3ccccc32)c1` [I-562, N-(benzo[d][1,3]dioxol-5-yl)-4-chloro-3-(indolin-1-ylsulfonyl)benzamide] is lower in “% Inhibition of Apyrase” value: 52% for the first, 51% for the second.

`COc1ccc2c(c1)CCCN2C(=O)c1cccc(S(=O)(=O)Nc2ccccc2F)c1` [I-561, N-(2-fluorophenyl)-3-(6-methoxy-1,2,3,4-tetrahydroquinoline-1-carbonyl)benzenesulfonamide] and `O=C(Nc1ccc2c(c1)OCCCO2)c1ccc(Cl)c(S(=O)(=O)N2CCc3ccccc32)c1` [I-565, 4-chloro-N-(3,4-dihydro-2H-benzo[b][1,4]dioxepin-7-yl)-3-(indolin-1-ylsulfonyl)benzamide] are the same in “% Inhibition of Apyrase” value: 51% for the first, 51% for the second.
